According to patent US20260224547A1, “COMPOSITIONS COMPRISING ANATABINE AND USES THEREOF” (Philip Morris Products S.A., priority 2021, published 2026):
Where a name gives a salt, the structure may show the parent alone.

Columns and labels:
[1] = tested on: NRF2; assay: NRF2 luciferase assay (NRF2/ARE reporter cell line); assay type: cell-based, human; details: for maximum log 2-fold change of NRF2 activation: at 12.5 μM for sulforaphane, 125 μM and 250 μM for DMF, 1000 μM for anatabine; for effect on the NRF2 pathway: FIG. 4, tobacco alkaloids
Excerpt: A HEK-293 NRF2/ARE luciferase reporter cell line was acquired from Signosis (USA). According to Signosis, this NRF2 luciferase reporter stable cell line had been stably transfected with pTA-ARE-luciferase reporter vector, which contains 4 repeats of antioxidant response binding sites, a minimal promoter upstream of the firefly luciferase coding region, along with a hygromycin expression vector. Following selection, the hygromycin resistant clones were subsequently screened for TBHQ-induced luciferase activity. The clone with the highest fold induction was selected and expanded to produce this stable cell line.
4, 8 or 24 hours after stimulation of the NRF2 reporter cells luminescence was measured using a FLUOstar Omega plate reader.

[2] = tested on: NRF2 reporter cells; assay: Cell viability measured with ATP assay alongside NRF2 translocation (FIG. 4 to 7); details: for cell viability, percentage of the vehicle control: human
Excerpt: FIGS. 5A to 5C: bar and line graphs showing NRF2 translocation presented as log 2 fold change compared to vehicle control (bars) and cell viability measured with ATP assay and presented as a percentage of the vehicle control (line) for anatabine (FIG. 5A), dimethyl fumarate (AlfaAesar) (FIG. 5B), and nornicotine (FIG. 5C).
FIGS. 6A to 6C: bar graphs showing NRF2 translocation presented as log 2 fold change compared to vehicle control (bars) and cell viability measured with ATP assay and presented as a percentage of the vehicle control (line) for anatabine (FIG. 6A), dimethyl fumarate (Sigma) (FIG. 6B), and sulforaphane (FIG. 6C).
FIGS. 7A and […]: bar graphs showing NRF2 translocation presented as log 2 fold change compared to vehicle control (bars) and cell viability measured with ATP assay and presented as a percentage of the vehicle control (line) for cotinine (FIG. 7A) and nicotine (FIG. 7B).

| Compound | maximum log 2-fold change of NRF2 activation [1] | cell viability at higher concentrations [2] | cell viability, percentage of the vehicle control ([2]; 500 μM) | effect on the NRF2 pathway [1] | further results |
| --- | --- | --- | --- | --- | --- |
| COC(=O)/C=C/C(=O)OC [DMF, dimethyl fumarate] | 6 to 7 | significantly reduced | ~0% |  | NRF2 activation, log 2-fold change ([1]; 125 μM, DMF from AlfaAesar): 6.74; NRF2 activation, log 2-fold change ([1]; 125 μM, DMF from Sigma): 6.90; NRF2 activation, log 2-fold change ([1]; 250 μM, DMF from AlfaAesar): 6.81; NRF2 activation, log 2-fold change ([1]; 250 μM, DMF from Sigma): 6.67 |
| c1cncc([C@@H]2CCCCN2)c1 [anabasine] |  |  |  | do not substantially affect |  |
| CN1C(=O)CC[C@H]1c1cccnc1 [cotinine] |  |  | below 85% | do not substantially affect | cell viability, percentage of the vehicle control ([2]; 1000 μM): below 85% |
| CN1CCCC1c1cccnc1 (centres unmarked) [nicotine] |  |  |  | do not substantially affect |  |
| c1cncc([C@@H]2CCCN2)c1 [nornicotine] |  |  |  | do not substantially affect |  |
| C[S+]([O-])CCCCN=C=S (centres unmarked) [sulforaphane] | approximately 5 | significantly reduced |  |  | NRF2 activation, log 2-fold change ([1]; 0.78 to 50 μM (P<0.01)): increase; cell viability, percentage of the vehicle control ([2]; 25 μM): around 50% |
